# Assays:
# [1] = test system: B16-OVA melanoma; assay: MTT proliferation assay, B16-OVA (Example 2); format: cell-based, murine; conditions: 48 hours; FIG. 16A
# [2] = test system: AT-84 E7 squamous cell carcinoma; assay: MTT proliferation assay, AT-84-E7 (Example 2); format: cell-based, murine; conditions: 48 hours; FIG. 16B
# [3] = test system: MOSCC3 squamous cell carcinoma; assay: MTT proliferation assay, MOSCC3 (Example 2); format: cell-based, murine; conditions: 48 hours; FIG. 16C
# [4] = test system: B16-OVA melanoma tumor line; assay: MHC Class I expression in B16-OVA by flow cytometry (Example 2); format: cell-based, murine; conditions: 24 hours at indicated concentrations; FIG. 15
# [5] = test system: CAL-27 squamous cell carcinoma cell line; assay: MTT proliferation assay, CAL-27; format: cell-based, human
# [6] = test system: RAW264.7 cell line; conditions: 48 hours after treatment
# Protocol: FIGS. 7A and 7B are plots showing cell surface expression of MHC I (H-2Kd) and MHC II (I-A/I-E), respectively, on rimantadine-treated RAW264.7 48 hours after treatment. Data are shown as mean±S.E.M. Statistics were done using an unpaired t-test.
# After obtaining single-cell suspensions, each sample was incubated with an Fc blocking reagent (anti-CD16/32 antibody; BioLegend, San Diego, CA). Following Fc blockade, cells were stained with fluorescent-labeled antibodies [BioLegend, BD Bioscience (San Jose, CA), or eBiosciences (Thermo Fisher Scientific, Waltham, MA)]. LIVE/DEAD Fixable Cell Staining Kit (Invitrogen) was used for viability staining. For intracellular staining, cells were processed with Foxp3/Transcription Factor Fixation/Permeabilization Concentrate and Diluent (Invitrogen). Cells were analyzed using a BD FACS Aria II or LSR II flow cytometer (BD). Data was analyzed on FlowJo (FlowJo, LLC, Ashland, OR). For each antibody, the following clones were used: CD45.2 (104), CD3e (145-2C11), CD4 (RM4-5), CD8a (5H10), CD25 (3C7, PC61), CD44 (IM7), CD62L (MEL-14), IFN-γ (XMG1.2), Foxp3 (MF23), H-2Kb (AF6-88.5), H-2Kk (36-7-5), H-2Kd (SF1-1.1), H-2Kb/[sequence] (eBio25-D1.16), I-A/I-E (2G9), CD49b (DX5), CD11b (M1/70), FLAG (L5), CD31 (MEC13.3), NK-T/NK Cell Antigen (U5A2-13), CD102 (3C4 (MIC2/4)), CD62P (RMP-1), CD105 (MJ7/18), CD106 (429 (MVCAM.A)), and CD162 (2PH1).
# [7] = test system: AT-84-E7 tumors which didn't express E5; assay: Tumor volume in mice inoculated with AT-84-E7 cells not expressing E5 (empty vector); format: in vivo; conditions: rimantadine for one week; FIG. 2A vs 2B
# Protocol: FIGS. 2A and 2B are plots showing the effects of rimantadine on tumor.
# (§1) Mice were injected subcutaneously with 1.0 to 5.0×10^5 AT-84-E7, 1.5×10^5 B16-OVA, or 5.0×10^5 4T1 cells resuspended in 100 μl of PBS in the right flank. For orthotopic models, 1.0×10^5 AT-84-E7 or 1.0×10^6 4MOSC1 in 30 μl of PBS were injected into tongue. Tumor diameter was measured every 2 to 3 days with an electronic caliper and reported as volume using the formula; tumor volume (mm3)=(length×width2)/2. Once tumors become palpable, mice were treated with 200 μg of anti-PD-L1 antibody (BioXcell, West Lebanon, NH) via IP injection every 3 days for a total of three or four injections per mouse, or mice were treated with 10 mg/kg body weight of rimantadine (Sigma, St. Louis, MO) via IP injection daily for 7 days. For adoptive transfer experiments, first, single-cell suspension of spleen from OT-1 mice were cultured in media containing 10 ng/ml OVA SIINFEKL peptide (InvivoGen, San Diego, CA) and 2 ng/ml recombinant IL-2 (PeproTech, Rocky Hill, NJ) […], and then 4.0×10^6 cells were intravenously injected into B16-OVA-bearing mice.
# [8] = test system: T cells; assay: T-cell proliferation assay using CFSE-labeled T-cells; format: cell-based; conditions: FIGS. 10A and 10B
# From the text: FIGS. 10A and 10B are plots showing T-cell proliferation assay using CFSE-labeled T-cells simulated to proliferate in the presence or absence of rimantadine.
# [9] = test system: 4MOSC1 tumor cells; assay: Tumor volume in mice inoculated with 4MOSC1 tumor cells (orthotopic HNSCC model); format: in vivo; conditions: 10 mg/kg IP once daily, 7 injections once tumors palpable; FIG. 1D
# Protocol: (§2) FIGS. 1A-1E are plots showing the effects of rimantadine or PEGylated rimantidine on tumor volume in different cancer models.
# as §1
# [10] = test system: B16-OVA tumor cells; assay: Tumor volume in mice inoculated with B16-OVA tumor cells; format: in vivo; conditions: 10 mg/kg IP once daily, 7 injections starting on day 10; FIG. 1B, 1E
# Protocol: as §2, §1
# [11] = test system: B16-OVA; assay: BrdU cell cycle analysis, B16-OVA; format: cell-based, murine; conditions: 24 hours; FIG. 8
# Protocol: (§3) FIG. 8 has plots showing the BrdU cell cycle analyzed for 24 hours following treatment with rimantadine,
# (§4) Cell cycle progression was analyzed on the basis of BrdU incorporation following […] cell staining with BrdU-APC and 7-AAD using BD Pharmingen BrdU Flow Kit. (BD, Franklin Lakes, NJ) according to the manufacture's protocol. Cells were analyzed using flow cytometry. Cell proliferation was assessed by using MTT [3-(4,5-dimethylthiazol-2-yl)-2,5-diphenyltetrazolium bromide]. First, cells were seeded in 96-well plate and cultured for 2-3 days. Next, culture media was replaced with fresh media containing 0.5 mg/ml of MTT (Sigma) and the plates were incubated for 4 hours at 37° C. Then, purple formazan crystals were dissolved in lysis buffer (4 mM HCl and 0.1% NP-40 in isopropanol) and the absorbance was recorded on a TECAN infinite M200 microplate reader (Tecan, Männedorf, Switzerland) at a wavelength of 570 nm with absorbance at 650 nm as reference.
# [12] = test system: CAL-33 squamous cell carcinoma cell line; assay: BrdU cell cycle analysis, CAL-33; format: cell-based, human; conditions: rimantadine alone; FIG. 13
# Protocol: (§5) FIG. 13 has plots showing the effect of rimantadine on human HNSCC lines as labeled. BrdU cell cycle analysis (upper) and MTT proliferation assay (lower).
# as §4
# [13] = test system: CAL-33 squamous cell carcinoma cell line; assay: MTT proliferation assay, CAL-33; format: cell-based, human; conditions: rimantadine alone; FIG. 13
# Protocol: as §5, §4
# [14] = test system: E5-positive AT-84-E7
# [15] = test system: SCC-47 squamous cell carcinoma cell line; assay: MTT proliferation assay, SCC-47; format: cell-based, human; conditions: rimantadine alone; FIG. 13
# Protocol: as §5, §4
# [16] = test system: multiple cell lines (AT-84-E7, B16-OVA, 4T1, B16, MC38); conditions: rimantadine 100 μM, 48 hours or 24 hours; FIGS. 3A-3E, 4A-D
# Protocol: FIGS. 3A-3E are plots showing MHC I expression or antigen-presentation (H-2Kb/[sequence]) as analyzed by flow cytometry after rimantadine treatment (100 μM, 48 hours). FIG. 3A is a plot showing MHC I expression for the AT-84-E7 model. FIG. 3B is a plot showing MHC I expression for the B16-OVA model. FIG. 3C is a plot showing antigen-presentation (H-2Kb/[sequence]) for the B16-OVA model. FIG. 3D is a plot showing MHC I expression for the 4T1 model.
# FIGS. 4A-4D are plots showing MHC expression in tumor cells. FIGS. 4A and 4B show MHC I expression analyzed by flow cytometry 48 hours after rimantadine treatment for B16 and MC38 cells, respectively. FIGS. 4C and 4D are plots showing expression of MHC I and antigen presentation (H-2Kb/[sequence]), respectively, 24 hours after rimantadine treatment in B16-OVA cells.
# After obtaining single-cell suspensions, each sample was incubated with an Fc blocking reagent (anti-CD16/32 antibody; BioLegend, San Diego, CA). Following Fc blockade, cells were stained with fluorescent-labeled antibodies [BioLegend, BD Bioscience (San Jose, CA), or eBiosciences (Thermo Fisher Scientific, Waltham, MA)]. LIVE/DEAD Fixable Cell Staining Kit (Invitrogen) was used for viability staining. […] Cells were analyzed using a BD FACS Aria II or LSR II flow cytometer (BD). Data was analyzed on FlowJo (FlowJo, LLC, Ashland, OR). […]
# [17] = test system: Tau; assay: Tau mRNA expression by RT-qPCR; format: cell-based; conditions: 24 hours; FIGS. 12A and B
# Protocol: FIGS. 12A and 12B are plots showing Tau mRNA expression, which was analyzed 24 hours following treatment with rimantadine.
# (§6) Total RNA were extracted using TRIzol Reagent (Invitrogen) and reverse transcribed with qScript cDNA Synthesis Kit (Quanta BioSciences, Beverly, MA) according to the manufacturer's instructions. Quantitative PCR analysis were conducted by using KAPA SYBR […] FAST (KAPA Biosystems, Wilmington, MA) on the 7900HT Fast Real-Time PCR System (Applied Biosystems, Foster City, CA).
# [18] = test system: B16-OVA cells co-cultured with B3Z cells; assay: B3Z activation assay; format: cell-based; conditions: 100 μM rimantadine 24 hours, then 24 hours co-culture; FIG. 5
# Protocol: FIG. 5 is a plot showing B3Z activation after rimantadine treatment (48 hours).
# B16-OVA cells were seeded into 96-well plate and treated with 100 μM rimantadine for 24 hours, prior to addition of B3Z cells. After 24 hours of co-culture, medium was removed and 100 μl of lysis buffer [0.155 mM chlorophenol red β-D-galactopyranoside (CPRG) (Roche), 0.125% Nonidet P-40 Alternative (EMD-Calbiochem), and 9 mM MgCl2 (Sigma) in PBS] was added. After incubation for 4 hours at 37° C., the absorbance at 570 nm was determined on a TECAN infinite M200 microplate reader.
# [19] = test system: AT-84-E7 and B16-OVA models; assay: Cell proliferation assay (MTT), FIG. 9; format: cell-based; conditions: 48 hours
# Protocol: FIG. 9 has plots showing the cell proliferation assay (MTT), which was analyzed 48 hours following treatment with rimantadine.
# as §4
# [20] = test system: CAL-27 squamous cell carcinoma cell line; assay: BrdU cell cycle analysis, CAL-27; format: cell-based, human; conditions: rimantadine alone; FIG. 13
# Protocol: as §5, §4
# [21] = test system: AT84-E7/E5 tumor cells; assay: Tumor volume in mice inoculated with AT84-E7/E5 tumor cells; format: in vivo; conditions: 10 mg/kg IP once daily, 7 injections starting on day 8; FIG. 1A
# Protocol: as §2, §1
# [22] = test system: SCC-47 squamous cell carcinoma cell line; assay: BrdU cell cycle analysis, SCC-47; format: cell-based, human; conditions: rimantadine alone; FIG. 13
# Protocol: as §5, §4
# [23] = test system: 4T1 tumor cells; assay: Tumor volume in mice inoculated with 4T1 tumor cells; format: in vivo; conditions: 10 mg/kg IP once daily, 7 injections starting on day 6; FIG. 1C
# Protocol: as §2, §1
# [24] = test system: murine and human cell lines engineered to express HPV16 E5; format: cell-based; conditions: 24 hours; FIG. 14
# [25] = test system: AT-84-E7; assay: BrdU cell cycle analysis, AT-84-E7; format: cell-based, murine; conditions: 24 hours; FIG. 8
# Protocol: as §3, §4
# [26] = test system: Stathmin; assay: Stathmin mRNA expression by RT-qPCR; format: cell-based; conditions: 24 hours
# Protocol: FIGS. 11A and 11B are plots showing Stathmin mRNA expression, which was analyzed 24 hours following treatment with rimantadine in AT-84-E7 cells and B16-OVA cells, respectively.
# as §6
structure (smiles),measurement,setting,value
CC12CC3CC(C)(C1)CC(N)(C3)C2 [memantine],proliferation (MTT),[1],inhibit proliferation
same,proliferation (MTT),[2],inhibit proliferation
same,proliferation (MTT),[3],inhibit proliferation
same,MHC Class I Expression,[4],upregulated
same,proliferation (MTT),"[5]; 48 hours, FIG. 17A",inhibited proliferation
same,proliferation (MTT),"[5]; 72 hours, FIG. 17B",inhibited proliferation
CC(N)C12CC3CC(CC(C3)C1)C2 (centres unmarked) [rimantadine],MHC class I surface expression,"[6]; H-2Kd, FIG. 7A",significant increases
same,MHC class II surface expression,"[6]; I-A/I-E, FIG. 7B",significant increases
same,proliferation (MTT),[1],inhibit proliferation
same,anti-tumor effect (tumor volume) relative to E5-expressing tumors,[7],decreased
same,proliferation of T cells,[8],no significant effect
same,anti-tumor activity (tumor volume),[9],significant anti-tumor activity
same,tumor sizes compared to control groups,[10],statistically significant decreases in tumor sizes
same,proliferation (MTT),[2],inhibit proliferation
same,GO/G1 cell cycle arrest,[11],significant increases
same,S phase,[11],significant decreases
same,cell cycle arrest (BrdU),[12],Significant cell cycle arrest
same,proliferation (MTT),[13],decreased proliferation
same,proliferation (MTT),[3],inhibit proliferation
same,cell surface expression of MHC I,[14],restored
same,proliferation (MTT),[15],decreased proliferation
same,surface expression of MHC,[16],Significant increases
same,Tau mRNA expression,[17],Decreases
same,increase in recognition of model tumor antigen by B3Z cells,[18],3 fold
same,cell proliferation (MTT),[19],Suppression of cell proliferation
same,cell cycle arrest (BrdU),[20],Significant cell cycle arrest
same,MHC Class I Expression,[4],upregulated
same,tumor size compared to control groups,[21],statistically significant decreases in tumor size
same,cell cycle arrest (BrdU),[22],Significant cell cycle arrest
same,tumor sizes compared to control groups,[23],statistically significant decreases in tumor sizes
same,cell cycle arrest (BrdU),[24],induced cell cycle arrest
same,proliferation (MTT),"[5]; 48 hours, FIG. 17A",inhibited proliferation
same,proliferation (MTT),"[5]; 72 hours, FIG. 17B",inhibited proliferation
same,proliferation (MTT),"[5]; rimantadine alone, FIG. 13",decreased proliferation
same,GO/G1 cell cycle arrest,[25],significant increases
same,S phase,[25],significant decreases
same,Stathmin mRNA expression,"[26]; AT-84-E7 cells, FIG. 11A",significant decreases
same,Stathmin mRNA expression,"[26]; B16-OVA cells, FIG. 11B",significant decreases
